Patent publication EP0472573B1, “HERBICIDE RESISTANT MAIZE” (ZENECA LIMITED, priority 1989, dated 1990)
Like-named read-outs stand apart in the source and are kept apart here.

Experiments:
[1] = target: ALS enzyme extracted from Mutant 5 (heterozygous); test: ALS enzyme assay, heterozygous Mutant 5; assay type: biochemical, Zea mays; conditions: for IC50: ALS of heterozygous Mutant 5, read-out: ID50% (the source's name); for resistance group, Enzyme Assay: Mutant 5, groups Strong, Intermediate, Weak, Zero; for Fold Increase: fold increase in resistance vs wild type, heterozygous Mutant 5, 30 min
Procedure: (§1) Seeds of generation M₁BC₁ M₁BC₂ of the nine mutants were sprayed pre-emergence with the herbicide imazethapyr (PURSUIT) (Trade Mark) at a rate of 250 g/ha and grown in a growth chamber (16 hour day, 27°C; 8 hour night, 17°C). Plants were harvested after 11 days.
(§2) Four grams of leaf material were harvested from just above the first leaf axis and ground in a mortar and pestle in 20ml of a solution containing 40mM Tricine (Trade Mark), 10mM EDTA, 5mM pyruvate, 80 »M flavin adenine dinucleotide (FAD), 1mM dithiothreitol (DTT), pH 8, plus 0.8g Polyclar AT. The homogenate was pressed through four layers of muslin and centrifuged at 30,000g for 20 minutes.
(§3) The supernatant was brought to 65% saturation with ammonium sulphate, left to precipitate for 30 minutes and then centrifuged at 30.000g for 20 minutes. The pellet was resuspended in 2.5ml of 40mM Tricine, 10mM EDTA, 5mM pyruvate, 80»M FAD, 25% (v/v) glycerol, 1mM DTT, pH 8, and desalted into 3.5ml of 40mM Tricine, 10mM EDTA, 25% (v/v) glycerol, 1mM DTT, pH 8.
(§4) One hundred microlitres of the enzyme extract was used for each assay. Final reagent concentrations were: 120mM Tricine, 50mM pyruvate, 10mM MgCl₂, […], 93»M thiamine pyrophosphate (TPP), pH 8, in the presence or absence of a herbicide of interest, in a volume of 750 »l. Incubations were carried out at 37°C for 30 minutes. Reactions were stopped with 250»l of 1.84M sulphuric acid, and decarboxylation of the acetolactate carried out at 37°C for 75 minutes, or at 60°C for 30 minutes. Assay blanks had sulphuric acid added prior to the enzyme extract. To the samples and blanks 650»l of α-naphthol in 2.73M NaOH/0.16%(w/v) creatine were added followed by incubation at 37°C for 30 minutes. After centrifugation at 30,000g the optical density of the supernatant was read at 540nm.
(§5) The assay procedure described was carried out on ALS enzyme extracted from each of the nine mutants for the following herbicides: imazethapyr (PURSUIT) imazapyr (ARSENAL) imazaquin (SCEPTER) chlorsulfuron (GLEAN) chlorimuron (CLASSIC) […] (HARMONY) The enzyme activity graphs are given as Figures 3 to 8. In addition, homozygous lines of mutants 1 and 2 which were selected from generation M₁BC₁S₂, were also tested against the same group of herbicides and against representatives of the triazolopyrimidines and phenoxypyrimidines. The chemical structures of these herbicides are shown in Figure 2 of the accompanying drawings.
(§6) From the enzyme assay data it is possible to derive, as a measure of the degree of inhibition the factor ID50% for each mutant and for each herbicide. This factor is indicative of the herbicide concentration which gives 50% inhibition of the ALS activity in comparison with the wild-type control. It is also possible to derive the fold increase in resistance.

Mutant 7 plants = test: Cross-resistance testing (glasshouse dose response), Mutant 7; assay type: in vivo, Zea mays; conditions: pre-emergence spray, assessed after four weeks growth
Description: The seeds used in this screen were populations of mixed tolerant and sensitive seed, segregating 1:1, derived from each of the heterogygous, tolerant mutants crossed with homozygous, sensitive UE95. All of the tolerant progeny are heterozygous for tolerance. Each of the mutants identified above were used except mutant 4. The controls were seed of self-pollinated UE95 which was pollinated in the same year as the tolerant lines.
One litre of compost was placed in each seed tray of dimensions 19cm x 11cm x 5cm deep and firmed down flat. Two furrows 1 cm deep were drawn in the surface of the compost in each tray and six seeds were sown in each furrow (total twelve seeds per tray). Some trays were sown with 24 seeds, in which case three furrows were made and 8 seeds sown per furrow.
In each test each tray contained either the seed of one mutant or of the UE95 control for each herbicide application rate and for the untreated control.
Five different types of ALS-inhibitor herbicides were tested on the mutants plus imazethapyr (PURSUIT) as a comparison. Four rates of each were applied; approximately 0.1x, 0.5x, 1x and 4x the estimated field rates for each herbicide. The rates are the same for mutant 3 to 10 but higher rates for chlorimuron (CLASSIC) and lower rates for chlorsulfuron (GLEAN) were applied to mutants 1 and 2.
The rates of application used in the screening tests were as follows: chlorimuron (CLASSIC) 4,20,40,160 g/Ha (mutants 1 and 2); and, 8,40,80,320 g/Ha (mutants 3 to 10); chlorsulfuron (GLEAN) 5,25,50,200 g/Ha (mutants 1 and 2); and, 1,5,10,40 g/Ha (mutants 3 to 10); imazaquin (SCEPTER) 30,150,300,1200 g/Ha; triazolopyrimidine 5,25,50,200 g/Ha; phenoxypyrimidine 10,50,100,400 g/Ha; and, imazethapyr (PURSUIT) 30,150,300,1200 g/Ha The triazolopyrimidine and phenoxypyrimidine were formulated in an adjuvant wetting agent known as JF5969 and diluted with water to make a final concentration of 10% JF5969. The remaining compounds were diluted with water only.
The spray jet and parameters were as decribed above under "SCREENING". After spraying, the seeds were covered with 0.5 litre of compost and firmed down flat (2.5cm covering) and grown under the conditions described under "SCREENING" above.
Visual assessments were made of the plants after four weeks growth. Each plant was scored on a scale of zero to 5 and the height measured from soil surface to the tallest leaf tip. The scoring scale was as follows: 0 - 0 to 10% damage (little or no herbicidal effect) 1 - 11 to 25% damage 2 - 26 to 50% damage 3 - 51 to […] 4 - 81 to 95% damage 5 - 96 to 100% damage (complete death of the plant) In carrying out these assessments, plants which were obviously of the sensitive phenotype were ignored (approximately 50% of the plants). […]

[2] = target: ALS enzyme extracted from Mutant 7 (heterozygous); test: ALS enzyme assay, heterozygous Mutant 7; assay type: biochemical, Zea mays; conditions: for IC50: ALS of heterozygous Mutant 7, read-out: ID50% (the source's name); for resistance group, Enzyme Assay: Mutant 7, groups Strong, Intermediate, Weak, Zero; for Fold Increase: fold increase in resistance vs wild type, heterozygous Mutant 7, 30 min
Procedure: as §1, §2, §3, §4, §5, §6

[3] = target: ALS enzyme extracted from Mutant 10 (heterozygous); test: ALS enzyme assay, heterozygous Mutant 10; assay type: biochemical, Zea mays; conditions: for IC50: ALS of heterozygous Mutant 10, read-out: ID50% (the source's name); for resistance group, Enzyme Assay: Mutant 10, groups Strong, Intermediate, Weak, Zero; for Fold Increase: fold increase in resistance vs wild type, heterozygous Mutant 10, 30 min
Procedure: as §1, §2, §3, §4, §5, §6

[4] = target: ALS enzyme extracted from Mutant 2 (heterozygous); test: ALS enzyme assay, heterozygous Mutant 2; assay type: biochemical, Zea mays; conditions: for IC50: ALS of heterozygous Mutant 2, read-out: ID50% (the source's name); for resistance group, Enzyme Assay: Mutant 2, groups Strong, Intermediate, Weak, Zero; for Fold Increase: fold increase in resistance vs wild type, heterozygous Mutant 2, 30 min
Procedure: as §1, §2, §3, §4, §5, §6

[5] = target: ALS (acetolactate synthase), Wild type; test: ALS enzyme assay, wild-type control; assay type: biochemical, Zea mays; conditions: read-out: ID50% (the source's name)
Procedure: as §1, §2, §3, §4, §5, §6

[6] = herbicide concentration giving 50% inhibition of ALS activity

Compound | IC50 [1] [nM] | resistance group, Enzyme Assay [1] | Fold Increase [1] | resistance group, Dose Response (Mutant 7 plants) | IC50 [2] [nM] | resistance group, Enzyme Assay [2] | Fold Increase [2] | IC50 [3] [nM] | resistance group, Enzyme Assay [3] | Fold Increase [3] | IC50 [4] [nM] | resistance group, Enzyme Assay [4] | Fold Increase [4] | IC50 [5, 6] [nM] | IC50 [5] [nM]
CC(C)C1(C)N=C(c2nc3ccccc3cc2C(=O)O)NC1=O (centres unmarked) [Imazaquin, imazaquin] | 25000 | Intermediate | 42 | Zero | 1000 | Weak | 2 | 7000 | Weak | 12 | 20000 | Intermediate | 33 | 600 | 
COc1cc(Cl)nc(NC(=O)NS(=O)(=O)c2ccccc2C(=O)O)n1 [Chlorimuron, chlorimuron] | 17 | Weak | 5 | Zero | 5 | Weak | 1 | 17 | Intermediate | 5 | 10 | Weak | 3 |  | 3.7
COc1nc(C)nc(NC(=O)NS(=O)(=O)c2ccccc2Cl)n1 [Chlorsulfuron, chlorsulfuron] | 40 | Weak | 2 | Weak | 8 | Zero | 1 | 35 | Weak | 2 | 65 | Weak | 4 |  | 18.5
CCc1cnc(C2=NC(=O)C(C)(C(C)C)N2)c(C(=O)O)c1 (centres unmarked) [Imazethapyr, 5-ethyl-2-(5-iso-propyl-5-methyl-4-oxo-2-imidazolin-2-yl) nicotinic acid] | 125000 | Intermediate | 83 | Weak | 4000 | Weak | 3 | 15000 | Intermediate | 10 | 230000 | Intermediate | 153 | 1500 | 
